# Assay results taken from a melting point compilation (Tetko et al.; mined from patent text by program, amines drawn as free bases though some values may be those of a salt).
row,melting point [°C],SMILES
1,181 to 182,COc1ccc(Cn2cnc3c(Cl)nc([N+](=O)[O-])nc32)cc1
2,268 to 269,Cn1c(=O)ccc2ccc(N)cc21
3,173,O=C(Cc1ccccc1)NC(C(=O)O)C(c1ccccc1)c1ccccc1 (centres undefined)
4,250,O=CN1[C@@H](c2cccnc2)SC[C@H]1C(=O)O
5,67 to 69,CO/C=C(/C(=O)OC)c1ccccc1C=O
6,150 to 151,COCCNC(=O)c1cccc(-c2cccc3c2nc(Oc2ccc(Cl)c(F)c2)n3C)c1
7,170 to 173,CC(C)n1cnc2c(NCc3ccncc3)nc(F)nc21
8,127 to 130,CC(=O)c1cnn2c(-c3cccc(C(F)(F)F)c3)ccnc12
9,186 to 188,CCOC(=O)Cn1c(C(=O)OCC)cc(=O)c2cc(O)c(=O)ccc21
10,> 250,CC1(C)CC(N(CCCCCCN(CCC(=O)O)C2CC(C)(C)NC(C)(C)C2)CCC(=O)O)CC(C)(C)N1
11,94 to 96,N#CC(=NO)c1c(Cl)cccc1Cl
12,195 to 200,Cc1cccc(C(=O)n2c3c(c4ccccc42)CC(C(=O)O)(C(=O)O)CC3)c1
13,176 to 179,COCCOc1ccc(OCC(O)CNCCOc2cccc(O)c2C(N)=O)cc1 (centres undefined)
14,160,Nc1cc(=O)n(Cc2cc(Cl)ccc2F)[nH]1
15,92 to 93.5,Cc1ccc(C(=CC=O)c2ccc(C)cc2)cc1
16,105 to 108,Cc1c(F)c(F)cc(C(N)=O)c1F
17,259 to 260,COC(=O)C=Cc1cc2cc(NC(=O)c3cc4ccccc4o3)ccc2[nH]1
18,204 to 205,CCCCc1nc2c(N)nc3ccccc3c2n1CCCNC(=O)c1cc2ccccc2cn1
19,162,Fc1cc(-c2cc(C(F)(F)F)n3ncc(-c4cccnc4)c3n2)ccc1C(F)(F)F
20,74 to 76,OC1C(COCC(F)(F)F)OC(n2cnc3c(NC4CCCC4)ncnc32)C1O (centres undefined)
21,64 to 67,CSc1nc2c(NCc3ccccc3)nc(NCCCO)nc2n1C(C)C
22,135 to 137,COC(=O)CC(Nc1ccccc1OC)c1cc2ccccc2nc1Cl (centres undefined)
23,165 to 167,CC(C)c1ccc2c(c1)C(=O)CC21CNC(=O)C1 (centres undefined)
24,111,CCOC(=O)C1CCc2cc(NS(C)(=O)=O)ccc2O1 (centres undefined)
25,241 to 243,C(=Cc1ccc(-c2nnn[nH]2)cc1)c1ccc(OCc2ccc3ccccc3n2)cc1

row,melting point [°C],SMILES
1,120 to 122,CCOC(=O)C(C)Oc1ccc(-c2nc(-c3ccc(C)cc3C)nc(-c3ccc(C)cc3C)n2)c(O)c1 (centres undefined)
2,98 to 100,COc1cnnc(Cl)c1
3,263 to 265,CN1CC(=O)Nc2cscc2C1=O
4,194 to 195,CCCCc1cn(CC(C)(C)C)c(=O)n1Cc1ccc(-c2ccccc2-c2nnn[nH]2)nc1
5,216 to 219,C[C@@H]1Cc2cc3c(cc2C(c2ccc(Cl)cc2)=NN1C1=NCCS1)OCO3
6,178 to 182,CCOC(=O)C1(C)C(=O)Nc2cc3[nH]c(-c4ccccc4)nc3cc21 (centres undefined)
7,207 to 209,O=C(O)c1cccc(NCc2cccc(Cl)c2)c1C(=O)O
8,73 to 75,CCOC(=O)c1c(CCc2ccc(OC)cc2)oc2ccc(Br)cc12
9,113 to 114,c1ccc(-c2nc(COc3ccc(CCCCn4ccnc4)cc3)co2)cc1
10,248 to 250,CCCOc1ccc(S(=O)(=O)N2CCN(CC)CC2)cc1-c1nc2cc(N)c([N+](=O)[O-])cc2c(=O)[nH]1
11,195 to 197,COc1cccc(C=C2C(=O)NC(=O)N2C)c1
12,94 to 95,CC(C)(C)[Si](C)(C)O[Si](C)(C)C(C)(C)C
13,60.5 to 61.5,FC(F)(F)C(F)(F)c1nc(-c2ccc(OCCCn3ccnc3)cc2)no1
14,97 to 99,N#Cc1c(F)cccc1Nc1ccccc1
15,228 to 229,COc1cc(OC)c(-c2cccs2)cc1/C=C/C(=O)c1ccc(S(=O)(=O)Nc2ccc(Cl)cn2)cc1
16,165 to 169,Cc1ccc([N+](=O)[O-])c(C(O)=S)c1
17,219 to 222,Cc1c(C(=O)O)oc2c(C(C)(C)C)ccc(O)c12
18,118 to 120,O=C(C=C1CC(C(=O)O)Nc2cc(Cl)ccc21)Nc1ccccc1 (racemic)
19,224 to 225,O=C(NNC(=O)c1ccccn1)c1ccccn1
20,135 to 137,Cc1cc(-n2nn[nH]c2=O)c(Cl)cc1Cl
21,93 to 101,CCN1CCCC(CC)(c2ccc(Nc3ncc4ccc(-c5ccccc5N(C)S(C)(=O)=O)n4n3)cc2)C1 (centres undefined)
22,132,CC(C)Cn1c(=O)n(C)c(=O)c2c(Br)c(C(O)c3cccnc3)sc21 (centres undefined)
23,171 to 173,CS(=O)(=O)c1ccc(-c2cnn(-c3ccc(C(F)(F)F)cc3)c(=O)c2-c2ccc(F)cc2)cc1
24,89 to 90,COc1cc2c(cc1OCc1ccccc1)C(OC)CN(Cc1cc(OC)c(OC)c(OC)c1)C2 (centres undefined)
25,167 to 169,OCc1cc2cc(O)c(Cl)c(Cl)c2s1

row,melting point [°C],SMILES
1,51.2 to 53.6,CCc1nn2c(I)cccc2c1N(CC)CCF
2,79 to 84,CC(C)c1cc(C(C)C)c(CC(=O)NS(=O)(=O)Oc2c(C(C)C)cc(C#N)cc2C(C)C)c(C(C)C)c1
3,64 to 68.5,COC(=O)C(Sc1ccccc1)c1ccc(Oc2ccc(Cl)cc2)cc1 (centres undefined)
4,238 to 239,CNC(=O)CC1(CC(=O)O)c2ccccc2C(=O)c2ccccc21
5,195,O=C(O)CCCc1cc2nc(C(F)(F)F)ccc2n1S(=O)(=O)c1cccc2ccccc12
6,294 to 297,Nc1nc(=O)n(C(=O)NC2CCCC2)cc1F
7,78 to 79.5,CC(C)(C)NC(=O)c1ccccc1O
8,160,O=C(O)CCc1cc2cc(Cl)ccc2n1S(=O)(=O)c1ccc2ccccc2c1
9,284 to 285,C#CCn1c(Br)c(C[C@H](NC(C)=O)C(=O)OC)c2c(Br)c(OC)c(Br)cc21
10,188 to 189,Cc1ccc(Cl)cc1NC(=S)Nc1nc(C)c(C)s1
11,116 to 121,Clc1nc(Cl)c2ncn(C3CCCCC3)c2n1
12,87 to 101,CCCCNS(=O)(=O)CC(O)C(O)C(CC1CCCCC1)NC(=O)[C@H](CC(C)C)NC(=O)C(Cc1ccccc1)CS(=O)(=O)C(C)(C)C (some centres undefined)
13,165,Cc1nnsc1C(=O)NS(=O)(=O)c1ccc(Cl)cc1
14,142 to 145,Cc1c(-c2ccccc2)oc2c(CS(=O)CCCl)cccc2c1=O (centres undefined)
15,265 to 267,N#Cc1ccc(NC(=O)Nc2ccc(S(N)(=O)=O)cc2)cc1
16,257 to 259,O=C(NCc1ccc(Cl)cc1)c1cnc2c(I)cc(CC3CCOCC3)cc2c1O
17,134 to 136,COC(=O)c1cccc(OC2CCOc3ccc(OCc4ccccc4)cc3C2=O)c1 (centres undefined)
18,150 to 151,COC(=O)c1ccc2cc(S)ccc2c1
19,188 to 190,CCOc1cc2ncc(C#N)c(Nc3cccc(Cl)c3)c2cc1OCC
20,116 to 117,CC1CCC(Nc2nccc(Oc3ccc(NC(=O)c4cc(F)cc(N5CCOCC5)c4)c4ccccc34)n2)CC1 (centres undefined)
21,76.7,N#CC(N)COc1ccc(Oc2ccccc2)cc1 (centres undefined)
22,136 to 137,COc1cc(CCC(=O)O)ccc1OCCCc1cn(-c2ccc(C(F)(F)F)cn2)nc1C
23,272,Nc1ncc(Br)cc1C(=O)O
24,73 to 76,COc1ccc(Nc2nc(NCCN(C)C)nc(NC3CCCCCC3)n2)cc1F
25,171 to 172,Clc1cccc2c(CN3CC=C(CCc4ccccc4)CC3)n[nH]c12

row,melting point [°C],SMILES
1,116 to 126,CC1(C)Oc2ccc(-c3nnnn3CCCC(=O)O)cc2[C@@H](Oc2ccc(O)nn2)[C@]1(C)O
2,140 to 143,Cc1ccc(N2N=C(C(F)(F)F)CC2c2ccc(S(C)(=O)=O)cc2)cc1 (centres undefined)
3,230 to 232,COc1ccccc1N1CCN(S(=O)(=O)c2ccc(N)cc2)CC1
4,115 to 117,CCOC(=O)N1CCC(Nc2cc(OC)ccc2[N+](=O)[O-])CC1
5,70 to 72,CC1(CC(=O)O)CCCC1=O (centres undefined)
6,230 to 237,CCn1c(O)cc(C)c(C#N)c1=O
7,174 to 175,CCCc1c[nH]c([C@@H]2Cc3ccccc3N2C(C)=O)n1
8,181 to 183,CC1(C)COC(=O)N1c1nc(-c2cccc(C#N)c2)cs1
9,34 to 37,COC(CNC(=O)C(CS)CC(C)C)OC (centres undefined)
10,65,Cc1cc(C)c2cccc(OCc3c(Cl)ccc(S(=O)(=O)N4CCC[C@H]4C(=O)N4CCCNCC4)c3Cl)c2n1
11,213 to 215,Cc1ccc(-c2cc3ccccc3[nH]2)cc1
12,137 to 140,Cn1nc(-c2cc(C(=O)O)c(Cl)cc2F)c(Cl)c1OC(F)F
13,138 to 140,COc1cc(N)c(Cl)cc1C(=O)CCC1CCNCC1
14,124,c1ccc(-c2ccc(CCN3CCN(c4ccccc4)CC3)s2)cc1
15,227 to 228,O=C(N[C@H](Cc1ccc(C(F)(F)F)cc1)[C@@H](O)c1ccc(F)cc1)c1cccc2cc3ccccc3cc12 (racemic)
16,156 to 158,Cc1nc(Cn2nnnc2-c2cccc(Cl)c2Cl)cs1
17,240 to 242,Fc1ccc(Oc2cnc3c(-c4ccccc4Cl)n[nH]c3n2)c(F)c1
18,58 to 59,COc1cccc2c1C(C#N)C2 (centres undefined)
19,166 to 169,CN1CCN(c2nc(-c3ccccc3)c(-c3ccnc(S(C)=O)n3)s2)CC1 (centres undefined)
20,115 to 117,CC(=O)N1CCc2cc(CC(C)Br)cc(C#N)c21 (centres undefined)
21,175 to 177,CCCCCCCCCCCC#Cc1cnccc1C=C(C(=O)O)C(=O)O
22,118 to 120,CCOC(=O)Cc1cc(Br)c(C(=O)c2ccc(Cl)cc2)n1C
23,145 to 146,Cc1ccc(C23CC4CC(C2)CC(c2ccc(C)cc2)(C4)C3)cc1
24,277 to 279,CC(O)(C(O)C(O)=Cc1ccccc1)C(O)(Br)C(O)C(O)=Cc1ccccc1 (centres undefined)
25,160 to 162,CCS(=O)(=O)Nc1cc(-c2ncnc(C(C)C)c2Cl)c(F)cc1C#N

row,SMILES,melting point [°C]
1,CCOP(=S)(CNSCNC(=O)ON=C(C)SC)OCC,72 to 73
2,CC(C)N1Cc2ccccc2P1(=O)c1ccccc1 (centres undefined),92 to 94
3,Cc1cc(C(O)C(Cl)(Cl)Cl)n(C)c1 (centres undefined),55 to 57
4,CN1Cc2c(C#N)ncn2-c2cccc(F)c2C1=O,> 250
